Results: patent US5149719A, “Composition for transdermal penetration of medicaments” (priority 1990, dated 1992)
Where a name gives a salt, the structure may show the parent alone.

Assays:
[1] = for amount of higher alcohol necessary to reach a small permanent visible excess: H^3-mannitol in 30% v/v aqueous ethanol
Method: Trace amounts of H^3 -mannitol were added to 10 ml aliquots of a 33% (v/v) ethanol/water solution. The saturating amount of octanol for this solution was determined to be 45 μl per aliquot. Varying amounts of octanol were added to each aliquot as shown below. The aliquots were warmed and kept at 32° C. until use.

in vitro = conditions: guinea pig, Permeability Coefficient (cm/hr) ± SEM, saturated dodecanol, Example 13

amount of higher alcohol necessary to reach a small permanent visible excess [1] | Structure (SMILES) | other results
~10 μl/ml | CCCCCCCCCCCCO [dodecanol] | 
~4 mg/mL | CCCCCCCCCCCCCO [tridecanol] | 
~4 mg/mL | CCCCCCCCCCCCCCO [tetradecanol] | 
~10 μl/ml | CCCCCCCCCCO [decanol] | 
100 μl/ml | CCCCCO [pentanol] | 
 | COc1ccc([C@@H]2Sc3ccccc3N(CCN(C)C)C(=O)[C@@H]2OC(C)=O)cc1 [Diltiazem Hydrochloride] | Papp at 8 h (in vitro; 20% v/v ethanol): 0.0336 ×10⁻⁶ cm/s; Papp at 8 h (in vitro; 30% v/v ethanol): 0.0925 ×10⁻⁶ cm/s; Papp at 8 h (in vitro; 40% v/v ethanol): 0.319 ×10⁻⁶ cm/s; Papp at 8 h (in vitro; 50% v/v ethanol): 0.294 ×10⁻⁶ cm/s; Papp at 8 h (in vitro; no ethanol): 0.00764 ×10⁻⁶ cm/s
~0.1 mg/mL | CCCCCCCCCCCCCCCCO [hexadecanol] | 
~0.1 mg/mL | CCCCCCCCCCCCCCCCCCO [octadecanol] | 
~20 μl/ml | CCCCCCCCO [octanol] | saturating amount of octanol ([1]; 10 ml aliquots of 33% (v/v) ethanol/water with trace H^3-mannitol): 45 μl per aliquot
